Read-outs that look alike come from different tables or passages of the source. Ends that are not written are not given here.
Key:
RBL-2H3 cells = format: cell-based, rat; conditions: for degranulation activity of mutant compared with Protopolybia-MPIII, in words: mutants of Protopolybia-MPIII, Table 3
Experimental: (§1) RBL-2H3 cells (rat mucosal-type mast cell line) and P815 cells (mouse mast cell tumor cell line) were obtained from the BeNa Culture Collection (Xinyang, China). RBL-2H3 cells were cultured in DMEM (Gibco, Wuhan, China) supplemented with 15% FBS (Gibco), and P815 cells were maintained in RPMI 1640 basic medium supplemented with 10% FBS and antibiotics (100 mg/L streptomycin and 1 × 10^5 U/L penicillin) in a humidified atmosphere (5% CO2, 37 °C).
(§2) Degranulation was analyzed by measuring the release of the granule marker N-acetyl-D-glucosaminidase (β-hexosaminidase), which colocalizes with histamine, as described in [24]. For this, 2 × 10^5 P815 cells/mL or 1.5 × 10^5 RBL-2H3 cells/mL were seeded in 96-well cell culture plates. Twelve hours later, the cells were incubated with various concentrations of mastoparans dissolved in 100 μL HEPES buffer (137 mM NaCl, 2.7 mM KCl, 1 mM MgCl2, 1.8 mM CaCl2, 20 mM HEPES, 1 mg/mL BSA, and 1 mg/mL glucose, pH 7.4) for 15 min at 37 °C and 5% CO2. Then, the reactions were quenched by the addition of 0.15 mL of ice-cold HEPES buffer. After centrifugation, the supernatants were sampled for the β-hexosaminidase assay. Briefly, 50 μL samples of the cell culture supernatants and 50 μL of the substrate, 5 mM p-nitrophenyl-N-acetyl-b-D-glucosaminide (Sigma) in 0.2 M citrate, pH 4.5, were incubated in 96-well plates at 37 °C and 5% CO2 for 16–18 h to yield the chromophore p-nitrophenol, and the reactions were stopped by the addition of 100 μL of 0.2 M glycine solution, pH 10.7. The absorbance of the colored product was assessed at 405 nm using a microtiter plate reader. The values for β-hexosaminidase released in the medium are expressed as the percentage of total β-hexosaminidase, which was measured in the cells after lysis in 0.1% Triton X-100. The experiment was repeated three times, and the results represent the mean and standard deviation (SD) of quadruplicate tests. The percent degranulation was calculated according to the following equation:Degranulation Rate (%) = 100% × (Amastoparans − AHEPES)/(ATriton X-100 − AHEPES).
Statistical analysis was performed with GraphPad Prism software. The curve of mast cell degranulation induced by wasp mastoparans was generated in SigmaPlot 12.5 software, and the EC50 was calculated according to the following equation (Four-Parameter Logistic Curve): y = min + (max − min)/(1 + (x/EC50) […] Hillslope).

P815 cells = test: Mast cell degranulation activity (β-hexosaminidase release) in P815 cells; format: cell-based, mouse
Experimental: as §1, §2

[1] = RBL-2H3 cells, 80 μg/mL peptide, 15 min at 37 °C, % of total β-hexosaminidase (0.1% Triton X-100 lysis)
[2] = P815 cells, 80 μg/mL peptide, 15 min at 37 °C, % of total β-hexosaminidase (0.1% Triton X-100 lysis)

INWKKIKSIIKAAMN-NH2 [MP-V1]
EC50 (RBL-2H3 cells; pH 7.4): 130 ± 46.6 µM

INWLKLGKKVIAIL-NH2 [Protopolybia-MP III-12]
EC50 (RBL-2H3 cells): 47.7 ± 14.1 µM

LNFKALAALAKKIL-NH2 [Pm-R2]
EC50 (RBL-2H3 cells; pH 7.4): 94.8 ± 73.5 µM

INWLKLGKAVIAAL-NH2 [Protopolybia-MP III-3]
EC50 (RBL-2H3 cells): 15.3 ± 3.53 µM

INWLKLGKAVSDIL-NH2 [Protopolybia-MP III-9]
EC50 (RBL-2H3 cells): 49.6 ± 1.73 µM

CC[C@H](C)[C@H](N)C(=O)N[C@@H](CC(N)=O)C(=O)N[C@@H](CC(C)C)C(=O)N[C@@H](CCCCN)C(=O)N[C@@H](C)C(=O)N[C@@H](CC(C)C)C(=O)N[C@@H](C)C(=O)N[C@@H](C)C(=O)N[C@@H](CC(C)C)C(=O)N[C@@H](C)C(=O)N[C@@H](CCCCN)C(=O)N[C@@H](CCCCN)C(=O)N[C@H](C(=O)N[C@@H](CC(C)C)C(N)=O)[C@@H](C)CC [Mastoparan(-L), reference compound]
EC50 (RBL-2H3 cells; pH 7.4): 52.1 ± 3.21 µM

INWLKLGKKVIDAL-NH2 [Protopolybia-MP III-1]
EC50 (RBL-2H3 cells): 98.4 ± 8.43 µM

INLKAIAALAKKLL-NH2 [Mastoparan-M]
Degranulation at 80 μg/mL, RBL-2H3 (RBL-2H3 cells): 10%
EC50 (RBL-2H3 cells; pH 7.4): > 200 µM
EC50 (μg/mL), RBL-2H3 (RBL-2H3 cells; pH 7.4): >300 µg/mL
Degranulation at 80 μg/mL, P815 (P815 cells): <20%

INWKAILQRIKKML-NH2 [Agelaia-MPII]
EC50 (RBL-2H3 cells; pH 7.4): 34.7 ± 9.03 µM

LKLLGIVKKVLGAI-NH2 [EMP-EM2]
EC50 (RBL-2H3 cells; pH 7.4): 72.8 ± 19.8 µM

INLKVFAALVKKLL-NH2 [Mastoparan-T2]
EC50 (RBL-2H3 cells; pH 7.4): 24.2 ± 7.89 µM

FDLLGLVKSVVSAL-NH2 [EpVP2b]
EC50 (RBL-2H3 cells; pH 7.4): 25.9 ± 2.88 µM

LNLKGLFKKVASLLT-OH [Eumenitin-F]
degranulation of RBL-2H3 / mast cells, in words (RBL-2H3 cells; RBL-2H3 cells): hardly induced mast cell degranulation
Degranulation at 80 μg/mL, RBL-2H3 (RBL-2H3 cells; [1]): 2%
EC50 (μg/mL), RBL-2H3 (RBL-2H3 cells; pH 7.4): >300 µg/mL
Degranulation at 80 μg/mL, P815 (P815 cells; [2]): <20%

IDWLKLGKMVMDVL-NH2 [Polybia-MPIII]
EC50 (RBL-2H3 cells; pH 7.4): 114 ± 59.3 µM

INWKKIAEVGGKILSSL-NH2 [Dominulin A]
Degranulation at 80 μg/mL, RBL-2H3 (RBL-2H3 cells; [1]): 11%
EC50 (RBL-2H3 cells; pH 7.4): > 200 µM
EC50 (μg/mL), RBL-2H3 (RBL-2H3 cells; pH 7.4): >300 µg/mL
Degranulation at 80 μg/mL, P815 (P815 cells; [2]): <20%

LNLKGLIKKVASLLN-OH [Eumenitin-R]
degranulation of RBL-2H3 / mast cells, in words (RBL-2H3 cells; RBL-2H3 cells): hardly induced mast cell degranulation
Degranulation at 80 μg/mL, RBL-2H3 (RBL-2H3 cells; [1]): 14%
EC50 (μg/mL), RBL-2H3 (RBL-2H3 cells; pH 7.4): >300 µg/mL
Degranulation at 80 μg/mL, P815 (P815 cells; [2]): <20%

IDWKKLLDAAKQIL-NH2 [Polybia-MPI]
EC50 (RBL-2H3 cells; pH 7.4): 23.2 ± 2.09 µM

LNLKGIFKKVASLLT-OH [Eumenitin]
degranulation of RBL-2H3 / mast cells, in words (RBL-2H3 cells; RBL-2H3 cells): hardly induced mast cell degranulation
Degranulation at 80 μg/mL, RBL-2H3 (RBL-2H3 cells; [1]): 8%
EC50 (μg/mL), RBL-2H3 (RBL-2H3 cells; pH 7.4): >300 µg/mL
Degranulation at 80 μg/mL, P815 (P815 cells; [2]): <20%

KDLHTVVSAILQAL-NH2 [OdVP3]
Degranulation at 80 μg/mL, RBL-2H3 (RBL-2H3 cells; [1]): 5%
EC50 (RBL-2H3 cells; pH 7.4): > 200 µM
EC50 (μg/mL), RBL-2H3 (RBL-2H3 cells; pH 7.4): >300 µg/mL
Degranulation at 80 μg/mL, P815 (P815 cells; [2]): <20%

INLKVFAALVKKFL-NH2 [Mastoparan-T1]
EC50 (RBL-2H3 cells; pH 7.4): 32.1 ± 10 µM

IDWLKLRVISVIDL-NH2 [Polybia-MPIV]
Degranulation at 80 μg/mL, RBL-2H3 (RBL-2H3 cells; [1]): 6%
EC50 (RBL-2H3 cells; pH 7.4): > 200 µM
EC50 (μg/mL), RBL-2H3 (RBL-2H3 cells; pH 7.4): >300 µg/mL
Degranulation at 80 μg/mL, P815 (P815 cells; [2]): <20%

INWLKLGKQILGAL-NH2 [Pm-R3]
EC50 (RBL-2H3 cells; pH 7.4): 7.6 ± 0.76 µM

INMKASAAVAKKLL-NH2 [Mastoparan-VB1]
degranulation of RBL-2H3 / mast cells, in words (RBL-2H3 cells; RBL-2H3 cells): neither of them could induce the degranulation
Degranulation at 80 μg/mL, RBL-2H3 (RBL-2H3 cells; [1]): −1%
EC50 (RBL-2H3 cells; pH 7.4): > 200 µM
EC50 (μg/mL), RBL-2H3 (RBL-2H3 cells; pH 7.4): >300 µg/mL
Degranulation at 80 μg/mL, P815 (P815 cells; [2]): <20%

INWLKLGKAVSAIL-NH2 [Protopolybia-MP III-11]
EC50 (RBL-2H3 cells): > 325 µM
degranulation activity of mutant compared with Protopolybia-MPIII, in words (RBL-2H3 cells): significantly decreased

INWLKLGKAVSAAL-NH2 [Protopolybia-MP III-8]
EC50 (RBL-2H3 cells): 140 ± 7.06 µM

INWLKLGKKVSDAL-NH2 [Protopolybia-MP III-5]
EC50 (RBL-2H3 cells): > 325 µM
EC50 (μg/mL), Protopolybia-MPIII and mutations (RBL-2H3 cells): >500 µg/mL
degranulation activity of mutant compared with Protopolybia-MPIII, in words (RBL-2H3 cells): almost lost

IKWKAILDAVKKVL-NH2 [Mastoparan-A]
EC50 (RBL-2H3 cells; pH 7.4): 28.4 ± 1.55 µM

INWLKLGKAVIDAL-NH2 [Protopolybia-MPIII]
EC50 (RBL-2H3 cells): 21.7 ± 3.44 µM
EC50 (RBL-2H3 cells; pH 7.4): 22.5 ± 2.96 µM

FDLLGLVKKVASAL-NH2 [EpVP2a]
EC50 (RBL-2H3 cells; pH 7.4): 31.6 ± 4.31 µM

INMKAVAAVAKKPL-NH2 [Mastoparan-VB2]
degranulation of RBL-2H3 / mast cells, in words (RBL-2H3 cells; RBL-2H3 cells): neither of them could induce the degranulation
Degranulation at 80 μg/mL, RBL-2H3 (RBL-2H3 cells; [1]): 0%
EC50 (RBL-2H3 cells; pH 7.4): > 200 µM
EC50 (μg/mL), RBL-2H3 (RBL-2H3 cells; pH 7.4): >300 µg/mL
Degranulation at 80 μg/mL, P815 (P815 cells; [2]): <20%

INWLKLGKAVIAIL-NH2 [Protopolybia-MP III-10]
EC50 (RBL-2H3 cells): 8.39 ± 0.93 µM

INWLKLGKAIIDAL-NH2 [Agelaia-MPI]
EC50 (RBL-2H3 cells; pH 7.4): 5.25 ± 0.87 µM

INWKKIFQKVKNLV-NH2 [PDD-A]
EC50 (RBL-2H3 cells; pH 7.4): 65.8 ± 19.5 µM

— article PMC10222454, “Characterization of the Molecular Diversity and Degranulation Activity of Mastoparan Family Peptides from Wasp Venoms” (Toxins, 2023)
